Data published in ChEMBL document CHEMBL5729653, “Substituted pyridotriazine compounds and uses thereof” (2023).

Experiment: HIV MT-4 Serum Shift Antiviral Reporter Assay: To quantify the amount of protein binding to human serum, compounds were serially diluted (1:3) in DMSO and acoustically transferred onto 384-well assay plates via a Labcyte ECHO robot. Each plate contained up to 8 test compounds, including negative and positive controls, (DMSO, 5 μM AZT respectively). Assay plates were prepared in duplicate, and tested in either CCM (cell culture media) or HS/CCM (human serum/cell culture media). MT-4 cells were first pre-infected with pLai RLuc reporter virus for 2 h at 37° C., then further diluted in either CCM (RPMI media, 10% FBS, 1% P/S) or HS/CCM (RPMI media, 10% FBS, 50% HS, 1% P/S), and subsequently added to each plate using a Biotek Micro Flow dispenser. After a 72-h incubation in a humidified and temperature controlled incubator (37° C.), Renilla Glo (Promega) was added to all assay plates and chemiluminescence read using an Envision plate-reader. EC50 values were defined as the compound concentration that causes a 50% decrease in luminescence signal, and were calculated using a sigmoidal dose-response model to generate curve fits. To determine the amount of protein binding, EC50 fold shifts (or EC50 shifts) were calculated by dividing EC50 (HS/CCM)/EC50 (CCM).

| EC50 [nM] | EC50 (MT4, 2 h) [nM] | Compound |
| --- | --- | --- |
| 1.9 |  | C[C@@H]1C=C[C@H](CF)N2CN1n1cc(C(=O)NCc3ccc(F)cc3F)c(=O)c(O)c1C2=O |
|  | 1.4 | CC1=C[C@H](C)N2CN([C@@H]1C)n1cc(C(=O)NCc3ccc(F)cc3F)c(=O)c(O)c1C2=O |
| 1.4 |  | C[C@H]1C=C[C@H](C)N2CN1C(=O)c1c(O)c(=O)c(C(=O)NCc3c(F)cc(F)cc3F)cn12 |
| 1.5 |  | C[C@@H]1CC[C@H](C)N2CN1n1cc(C(=O)NCc3ccc(F)cc3F)c(=O)c(O)c1C2=O |
| 1.8 |  | CO[C@@H]1C=C[C@H](C)N2CN1n1cc(C(=O)NCc3c(F)cc(F)cc3F)c(=O)c(O)c1C2=O |
|  | 1.5 | C[C@@H]1C[C@H](O)[C@H](O)CN2CN1n1cc(C(=O)NCc3ccc(F)cc3F)c(=O)c(O)c1C2=O |

| Compound | EC50 [nM] | EC50 (MT4, 2 h) [nM] |
| --- | --- | --- |
| C[C@H]1C=CC2(CCC2)N2CN1C(=O)c1c(O)c(=O)c(C(=O)NCc3c(F)cc(F)cc3F)cn12 | 3 |  |
